Measured values from article PMC3236199, “Development of Derivatives of 3, 3′-Diindolylmethane as Potent Leishmania donovani Bi-Subunit Topoisomerase IB Poisons” (PLoS ONE, 2011).

Columns and labels:
[1] = test system: F270L mutant topoisomerase I; conditions: cited from earlier work
CT DNA = target: CT DNA; parameters: method as in PMID 17922678; conditions: interaction with DNA; read-out: dissociation constant (KD); cited from earlier work
[2] = test system: L. donovani topoisomerase II; experiment: Immunoband depletion assay, topoisomerase II; format: cell-based, Leishmania donovani; conditions: 50 µM, antibody against ATPase domain of topoisomerase II
Method: Leishmania cells (3×10^7) were cultured in absence and presence of the drugs. Nuclear fractions were isolated as described. Briefly, cells were suspended in hypotonic buffer (10 mM Tris-HCl, pH 7.5, 1 mM EDTA, 0.1 mM EGTA, 1 mM PMSF, 1 mM benzamidine hydrochloride and 5 mM DTT) and homogenized. The homogenate was centrifuged for 10 min at 10,000 g. The pellets were washed and used as the source of nuclear fraction. Thereafter, the nuclear fractions were lysed with 1% SDS and subjected to SDS-PAGE (10%). The proteins were electrophoretically transferred to nitrocellulose membranes and immumobloting of immobilized proteins were carried out using a rabbit polyclonal antibody raised against LdTOP1S for topoisomerase I and ATPase domain of L. donovani topoisomerase II [8].
To rule out the topoisomerase II mediated cleavable complex stabilization by the derivatives, we have carried out immunoband depletion assay with antibody raised against ATPase domain (43 kDa) of L. donovani topoisomerase II.
Supplementary file pone.0028493.s001.tif: Figure S1 Stabilization of topoisomerase-II mediated cleavable complex was determined by immunoband depletion assay. Immunoband depletion of L. donovani topoisomerase II, using an antibody raised against LdTOP2 (ATPase domain, 43 kDa). […]

LdTOP1LS = experiment: Plasmid cleavage assay; format: biochemical, Leishmania donovani; conditions: 20 µM, pHOT1 DNA
Method: Cleavage assay was carried out as described previously. Briefly, 50 fmol of pHOT1 supercoiled DNA (containing topoisomerase I cleavage site) and 100 fmol of reconstituted LdTOP1LS were incubated in standard reaction mixture (50 µl) containing 50 mM Tris/HCl (pH 7.5), 100 mM KCl, 10 mM MgCl2, 0.5 mM DTT, 0.5 mM EDTA and 30 µg/ml BSA in the presence of various concentrations of drugs at 37°C for 30 min. The reactions were terminated by adding 1% SDS and 150 µg/ml proteinase K and further incubated for 1 h at 37°C. DNA samples were electrophoresed in a 1% agarose gel containing 0.5 µg/ml EtBr.
The effect of DIM and its derivatives on L. donovani topoisomerase I was examined by plasmid DNA cleavage assay as described. The topoisomerase reaction has three general mechanistic steps: (i) binding of enzyme to the substrate DNA, (ii) single strand breakage and subsequent strand rotation through the break leading to change in linking number, and (iii) strand religation. The second step of reaction is the introduction of a single-stranded nick in the phosphodiester bond of the DNA, through which an intact strand is allowed to pass. […]

Structure (SMILES) | sensitivity of F270L topoisomerase I mutant [1] | Kd (CT DNA) [µM] | stabilization of topoisomerase II mediated cleavage complex [2] | conversion of closed circular DNA (form I) to nicked circular DNA (form II) (LdTOP1LS)
c1ccc2c(Cc3c[nH]c4ccccc34)c[nH]c2c1 [DIM, 3, 3′-diindolyl methane, reference compound] | insensitive | 22 | do not stabilize cleavage complex formation | 
COc1ccc2[nH]cc(Cc3c[nH]c4ccc(OC)cc34)c2c1 [DMODIM, 5,5′-dimethoxy 3,3′-diindolyl methane] |  |  |  | didn't cause conversion of all the form I DNA to form II
